pIC50: −log10 of the molar value.
Experiments:
Assay in all cases: Inhibition of ALDH isoenzymes (NAD(P)H formation at 340 nm, purified recombinant enzyme);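 on ALDH2 % Control at 20 μM: run at 25 °C, started by adding substrate after 2 min preincubation, with 100-200 nM ALDH2, 200 µM NAD+, 100 µM propionaldehyde, 1% DMSO in BES buffer pH 7.5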
Type in all cases: biochemical
ALDH1A2 = target: T1, ALDH1A2 (Homo sapiens, UniProt O94788); conditions: for pIC50: 100-200 nM enzyme, 200 μM NAD+, 100 μM propionaldehyde, pH 7.5, 25° C.; for remaining activity at 20 µM: compound at 20 μM, read-out: ALDH1A2 % Control at 20 μM
T1 sequence (O94788 1-518): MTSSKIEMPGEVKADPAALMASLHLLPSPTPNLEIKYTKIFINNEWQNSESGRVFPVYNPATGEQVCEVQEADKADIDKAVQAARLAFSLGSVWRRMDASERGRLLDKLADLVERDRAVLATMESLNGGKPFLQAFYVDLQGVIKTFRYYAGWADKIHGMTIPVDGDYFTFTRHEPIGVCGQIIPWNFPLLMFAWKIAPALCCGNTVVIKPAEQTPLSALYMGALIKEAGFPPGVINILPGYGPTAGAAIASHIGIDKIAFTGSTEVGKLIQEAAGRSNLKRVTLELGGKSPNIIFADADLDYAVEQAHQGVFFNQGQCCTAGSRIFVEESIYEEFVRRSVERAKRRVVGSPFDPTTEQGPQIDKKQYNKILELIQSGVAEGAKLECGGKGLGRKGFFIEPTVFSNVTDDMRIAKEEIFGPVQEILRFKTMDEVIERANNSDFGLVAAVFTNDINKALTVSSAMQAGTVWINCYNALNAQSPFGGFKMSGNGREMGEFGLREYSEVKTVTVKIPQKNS

ALDH1A3 = target: T2, ALDH1A3 (Homo sapiens, UniProt P47895); conditions: for pIC50: 100-200 nM enzyme, 200 μM NAD+, 100 μM propionaldehyde, pH 7.5, 25° C.; for remaining activity at 20 µM: compound at 20 μM, read-out: ALDH1A3 % Control at 20 μM
T2 sequence (P47895 1-512): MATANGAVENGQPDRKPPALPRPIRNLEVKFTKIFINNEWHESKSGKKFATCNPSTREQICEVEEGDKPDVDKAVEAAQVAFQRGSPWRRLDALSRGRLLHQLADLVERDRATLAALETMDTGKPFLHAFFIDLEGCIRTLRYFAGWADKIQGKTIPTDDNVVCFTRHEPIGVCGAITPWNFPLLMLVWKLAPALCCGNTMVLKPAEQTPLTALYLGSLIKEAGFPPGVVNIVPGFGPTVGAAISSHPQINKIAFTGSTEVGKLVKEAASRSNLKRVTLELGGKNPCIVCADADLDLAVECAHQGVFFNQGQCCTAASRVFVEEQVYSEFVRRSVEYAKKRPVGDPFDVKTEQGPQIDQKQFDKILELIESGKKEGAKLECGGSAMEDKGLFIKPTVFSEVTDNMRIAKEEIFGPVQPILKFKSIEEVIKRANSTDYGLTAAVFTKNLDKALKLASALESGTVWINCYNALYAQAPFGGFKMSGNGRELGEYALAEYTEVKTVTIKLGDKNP

ALDH1A1 = target: T3, ALDH1A1 (Homo sapiens, UniProt P00352); conditions: for pIC50: 100-200 nM enzyme, 200 μM NAD+, 100 μM propionaldehyde, pH 7.5, 25° C.; for remaining activity at 20 µM: compound at 20 μM, read-out: ALDH1A1 % Control at 20 μM
T3 sequence (P00352 1-501): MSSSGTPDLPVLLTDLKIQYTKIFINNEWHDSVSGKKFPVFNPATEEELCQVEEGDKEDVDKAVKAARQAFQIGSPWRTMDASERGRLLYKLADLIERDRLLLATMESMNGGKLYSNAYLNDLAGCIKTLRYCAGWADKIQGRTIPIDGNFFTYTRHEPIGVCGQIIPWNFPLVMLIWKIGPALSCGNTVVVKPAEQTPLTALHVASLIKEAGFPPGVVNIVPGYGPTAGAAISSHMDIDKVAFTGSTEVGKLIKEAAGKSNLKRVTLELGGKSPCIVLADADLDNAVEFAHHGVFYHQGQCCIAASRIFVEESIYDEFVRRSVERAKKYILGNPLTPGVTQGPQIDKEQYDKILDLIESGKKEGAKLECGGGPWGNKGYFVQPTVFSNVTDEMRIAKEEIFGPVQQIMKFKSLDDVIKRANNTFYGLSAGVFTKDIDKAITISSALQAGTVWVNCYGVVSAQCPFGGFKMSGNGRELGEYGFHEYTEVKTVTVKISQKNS

ALDH2 = target: T4, ALDH2 (Homo sapiens, UniProt P05091); conditions: compound at 20 μM; read-out: ALDH2 % Control at 20 μM;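 further: run at 25 °C, started by adding substrate after 2 min preincubation, with 100-200 nM ALDH2, 200 µM NAD+, 100 µM propionaldehyde, 1% DMSO in BES buffer pH 7.5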
T4 sequence (P05091 18-517): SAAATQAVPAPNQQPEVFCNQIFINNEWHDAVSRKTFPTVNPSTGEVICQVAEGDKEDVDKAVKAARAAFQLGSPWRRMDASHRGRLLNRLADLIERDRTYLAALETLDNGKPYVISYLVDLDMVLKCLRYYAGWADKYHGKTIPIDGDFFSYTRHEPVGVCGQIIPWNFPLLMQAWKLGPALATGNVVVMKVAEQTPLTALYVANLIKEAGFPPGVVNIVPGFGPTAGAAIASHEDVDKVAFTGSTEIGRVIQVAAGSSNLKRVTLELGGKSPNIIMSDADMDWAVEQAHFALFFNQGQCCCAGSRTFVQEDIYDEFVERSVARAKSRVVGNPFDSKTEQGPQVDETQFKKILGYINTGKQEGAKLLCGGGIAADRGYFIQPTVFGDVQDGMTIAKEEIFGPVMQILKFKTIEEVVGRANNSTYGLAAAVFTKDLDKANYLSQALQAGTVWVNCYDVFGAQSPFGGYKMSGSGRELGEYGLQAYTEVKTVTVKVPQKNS

Structure (SMILES): Cn1ncc2c(=O)n(-c3ccccc3)c(SCC(=O)c3ccccc3)nc21 [Example 52, 1-methyl-6-((2-oxo-2-phenylethyl)thio)-5-phenyl-1H-pyrazolo[3,4-d]pyrimidin-4(5H)-one]
- pIC50 (ALDH1A2): 6.89
- pIC50 (ALDH1A3): 7.02
- pIC50 (ALDH1A1): 6.26
- remaining activity at 20 µM (ALDH2): 91%

Structure (SMILES): Cc1ccccc1-n1c(SCc2cccc(F)c2)nc2n[nH]c(C)c2c1=O [Example 39, 6-((3-fluorobenzyl)thio)-3-methyl-5-(o-tolyl)-2H-pyrazolo[3,4-d]pyrimidin-4(5H)-one]
- remaining activity at 20 µM (ALDH1A2): 93%
- remaining activity at 20 µM (ALDH1A3): 79%
- pIC50 (ALDH1A1): 5.92
- remaining activity at 20 µM (ALDH2): 95%

Structure (SMILES): Cn1ncc2c(=O)n(-c3ccccc3)c(SC(C)(C)c3ccccc3)nc21 [Example 77, 1-methyl-5-phenyl-6-((2-phenylpropan-2-yl)thio)-1H-pyrazolo[3,4-d]pyrimidin-4(5H)-one]
- remaining activity at 20 µM (ALDH1A2): 23%
- remaining activity at 20 µM (ALDH1A3): 17%
- remaining activity at 20 µM (ALDH1A1): 22%
- remaining activity at 20 µM (ALDH2): 102%

Structure (SMILES): Cc1ccccc1-n1c(NCc2cccc(F)c2)nc2[nH]ncc2c1=O [Example 22, 6-((3-fluorobenzyl)amino)-5-(o-tolyl)-1H-pyrazolo[3,4-d]pyrimidin-4(5H)-one]
- remaining activity at 20 µM (ALDH1A2): 96%
- remaining activity at 20 µM (ALDH1A3): 90%
- remaining activity at 20 µM (ALDH1A1): 61%
- remaining activity at 20 µM (ALDH2): 96%

Structure (SMILES): Cc1ccccc1-n1c(OCc2cccc(F)c2)nc2c(cnn2C)c1=O [Example 24, 6-((3-fluorobenzyl)oxy)-1-methyl-5-(o-tolyl)-1H-pyrazolo[3,4-d]pyrimidin-4(5H)-one]
- remaining activity at 20 µM (ALDH1A2): 72%
- remaining activity at 20 µM (ALDH1A3): 66%
- pIC50 (ALDH1A1): 5.92
- remaining activity at 20 µM (ALDH2): 95%

Structure (SMILES): O=c1c2cnn(C3COC3)c2nc(SCc2cccc(F)c2)n1-c1ccccc1 [Example 18, 6-((3-fluorobenzyl)thio)-1-(oxetan-3-yl)-5-phenyl-H-pyrazolo[3,4-d]pyrimidin-4(5H)-one]
- remaining activity at 20 µM (ALDH1A2): 7%
- remaining activity at 20 µM (ALDH1A3): 9%
- remaining activity at 20 µM (ALDH1A1): 2%

Structure (SMILES): COc1cccc(CSc2nc3c(cnn3C)c(=O)n2-c2ccccc2)c1 [Example 54, 6-((3-methoxybenzyl)thio)-1-methyl-5-phenyl-1H-pyrazolo[3,4-d]pyrimidin-4(5H)-one]
- pIC50 (ALDH1A2): 6.58
- pIC50 (ALDH1A3): 6.68
- pIC50 (ALDH1A1): 6.55
- remaining activity at 20 µM (ALDH2): 88%

Structure (SMILES): Cn1ncc2c(=O)n(C3CCCCC3)c(SCc3cccc(F)c3)nc21 [Example 44, 5-cyclohexyl-6-((3-fluorobenzyl)thio)-1-methyl-1H-pyrazolo[3,4-d]pyrimidin-4(5H)-one]
- remaining activity at 20 µM (ALDH1A2): 36%
- remaining activity at 20 µM (ALDH1A3): 43%
- remaining activity at 20 µM (ALDH1A1): 37%
- remaining activity at 20 µM (ALDH2): 177%

Structure (SMILES): CCn1ncc2c(=O)n(-c3ccccc3C)c(SCc3cccc(F)c3)nc21 [Example 5, 1-ethyl-6-((3-fluorobenzyl)thio)-5-(o-tolyl)-1H-pyrazolo[3,4-d]pyrimidin-4(5H)-one]
- pIC50 (ALDH1A2): 4.82
- pIC50 (ALDH1A3): < 5.00
- pIC50 (ALDH1A1): 6.46
- remaining activity at 20 µM (ALDH2): 93%

Structure (SMILES): Cc1ccccc1-n1c(NCCc2cccc(F)c2)nc2c(cnn2C)c1=O [Example 23, 6-((3-fluorophenethyl)amino)-1-methyl-5-(o-tolyl)-1H-pyrazolo[3,4-d]pyrimidin-4(5H)-one]
- remaining activity at 20 µM (ALDH1A2): 68%
- remaining activity at 20 µM (ALDH1A3): 100%
- remaining activity at 20 µM (ALDH1A1): 66%
- remaining activity at 20 µM (ALDH2): 94%

Structure (SMILES): Cn1ncc2c(=O)n(-c3ccccc3F)c(SCc3cccc(F)c3)nc21 [Example 56, 6-((3-fluorobenzyl)thio)-5-(2-fluorophenyl)-1-methyl-1H-pyrazolo[3,4-d]pyrimidin-4(5H)-one]
- remaining activity at 20 µM (ALDH1A3): 9%

Structure (SMILES): Cn1ncc2c(=O)n(-c3ccccc3)c(COCc3cccc(F)c3)nc21 [Example 50, 6-(((3-fluorobenzyl)oxy)methyl)-1-methyl-5-phenyl-1H-pyrazolo[3,4-d]pyrimidin-4(5H)-one]
- remaining activity at 20 µM (ALDH1A2): 52%
- remaining activity at 20 µM (ALDH1A3): 37%
- remaining activity at 20 µM (ALDH1A1): 15%
- remaining activity at 20 µM (ALDH2): 101%

Structure (SMILES): Cn1ncc2c(=O)n(-c3ccccc3)c(SCc3cccc(C=O)c3)nc21 [Example 58, 3-(((1-methyl-4-oxo-5-phenyl-4,5-dihydro-1H-pyrazolo[3,4-d]pyrimidin-6-yl)thio)methyl)benzaldehyde]
- pIC50 (ALDH1A2): 5.47
- ALDH1A2: compound is a substrate (ALDH1A2; result in words): (slow
- pIC50 (ALDH1A3): 6.12
- ALDH1A1: compound is a substrate (ALDH1A1; result in words in place of IC50): substrate
- remaining activity at 20 µM (ALDH2): 102%

Structure (SMILES): Cc1ccccc1-n1c(SCc2cccc(F)c2)nc2[nH]ncc2c1=O [Example 1, 6-((3-fluorobenzyl)thio)-5-(o-tolyl)-1H-pyrazolo[3,4-d]pyrimidin-4(5H)-one]
- pIC50 (ALDH1A2): 5.33
- pIC50 (ALDH1A3): < 4.70

Structure (SMILES): CCn1cc2c(=O)n(-c3ccccc3C)c(SCc3cccc(F)c3)nc2n1 [Example 6, 2-ethyl-6-((3-fluorobenzyl)thio)-5-(o-tolyl)-2H-pyrazolo[3,4-d]pyrimidin-4(5H)-one]
- pIC50 (ALDH1A2): 5.28
- pIC50 (ALDH1A3): 5.12
- pIC50 (ALDH1A1): 6.40
- remaining activity at 20 µM (ALDH2): 91%

Structure (SMILES): CC(Sc1nc2nn(C3COC3)cc2c(=O)n1-c1ccccc1)c1ccccc1 (centres unmarked) [Example 74, 2-(oxetan-3-yl)-5-phenyl-6-((1-phenylethyl)thio)-2H-pyrazolo[3,4-d]pyrimidin-4(5H)-one]
- remaining activity at 20 µM (ALDH1A2): 0%
- remaining activity at 20 µM (ALDH1A3): 0%
- remaining activity at 20 µM (ALDH1A1): 3%
- remaining activity at 20 µM (ALDH2): 96%

Structure (SMILES): Cn1ncc2c(=O)n(-c3ccccc3)c(CCc3cccc(F)c3)nc21 [Example 48, 6-(3-fluorophenethyl)-1-methyl-5-phenyl-1H-pyrazolo[3,4-d]pyrimidin-4(5H)-one]
- remaining activity at 20 µM (ALDH1A3): 26%
- remaining activity at 20 µM (ALDH1A1): 24%
- remaining activity at 20 µM (ALDH2): 98%

Structure (SMILES): CC(Sc1nc2c(cnn2C)c(=O)n1-c1ccccc1)c1cccnc1 (centres unmarked) [Example 80, 1-methyl-5-phenyl-6-((1-(pyridin-3-yl)ethyl)thio)-1H-pyrazolo[3,4-d]pyrimidin-4(5H)-one]
- remaining activity at 20 µM (ALDH1A2): 7%
- remaining activity at 20 µM (ALDH1A1): 6%
- remaining activity at 20 µM (ALDH2): 96%

Structure (SMILES): CC(Sc1nc2c(cnn2C)c(=O)n1-c1ccccc1)c1ccccn1 (centres unmarked) [Example 79, 1-methyl-5-phenyl-6-((1-(pyridin-2-yl)ethyl)thio)-1H-pyrazolo[3,4-d]pyrimidin-4(5H)-one]
- remaining activity at 20 µM (ALDH1A2): 1%
- remaining activity at 20 µM (ALDH1A1): 9%
- remaining activity at 20 µM (ALDH2): 92%
